This is an account of results in patent US6107316A, “Method for treating protozoal infections” (priority 1998, dated 2000).

One assay relates to Cryptosporidium parvum. In words: growth inhibitory activity against C. parvum in host MDBKF5D2 cells (immunofluorescence). Particulars: Cryptosporidium parvum, 48 h. Type of assay: cell-based.
In assay [1] the test system is Encephalitozoon (Septata) intestinalis. The assay can be described thus: growth inhibitory activity against E. intestinalis grown on Vero cells (spore count). Type of assay: cell-based. The conditions noted are these: 336 h, 1.0 μg/ml, spore number after 2 weeks, read-out: Growth (% of control). Here is the method: Compounds 2, 10 and 15 were tested for i,7 vitro growth inhibitory activity against E. intestinalis, grown on African green monkey kidney cells (Vero cells). Vero cells were grown in 25-cm^2 culture flasks at 37° C. in a humidified 5% carbon dioxide incubator. Cultures were maintained in minimal essential medium (Gibco BRL, Gaithersburg, Md., U.S.A.), supplemented with L-glutamine, Earle's salts, 5% heat-inactivated foetal calf serum (Hyclone Labs, Inc., U.S.A.), fungizone (2 μg/ml, Gibco BRL) and gentamicin (50 μg/ml, Gibco BRL). E. intestinalis spores were collected from the supernatant of an infected Vero cell culture and were used to infect normal cells to produce a fresh spore preparation for growth inhibition tests.
Growth inhibition tests were performed in 24-well culture plates. One ml of Vero cells (5×10^4 cells per ml) was placed in each well and the cells incubated for 12-15 hours at 37° C. The supernatant medium was then removed and replaced with 1 ml of medium containing 1.5-2.0×10^4 E. intestinalis spores per ml along with 1 μl of test compound dissolved in dimethylsulfoxide (DMSO) or DMSO alone for the control treatments without test compound. The plates were incubated at 37° C. and the medium was changed every 72 h along with fresh test compound in DMSO or DMSO alone (controls). After 2 weeks the supernatant was transferred from each well to a microcentiifuge tube, then concentrated by centrifugation with resuspension of the resulting E. intestinalis spore pellet in 300-500 μl fresh medium. The spore number in each sample was then determined by counting in a hemocytometer. The results in Table 11 show the effects of the test compounds on the number of spores and are expressed as a percentage of the spore number in the control treatment without test compound.

For `CCC(C)(NC(=O)c1cc(Cl)c(N)c(Cl)c1)C(=O)CCl` (centres unmarked) [Compound 1], in the assay on Cryptosporidium parvum, 0.1 µM produced 23.1% inhibition, 1 µM produced 29.2% inhibition and 10 µM produced 34.2% inhibition. For the same molecule, testing at 100 µM in the assay with Cryptosporidium parvum (100 μM) gave an inhibition of 81.1%.

Take `CCC(C)(NC(=O)c1cc(Cl)c(F)c(Cl)c1)C(=O)CCl` (centres unmarked) [Compound 9]: in the assay on Cryptosporidium parvum, 0.1 µM produced 1.8% inhibition; the inhibition (commonly the drop in the measured response relative to a control, in per cent) at 1 µM stood at 27.9%; the inhibition at 10 µM amounted to 32.8%.

For the molecule `CCC(C)(NC(=O)c1cc(Cl)c(C)c(Cl)c1)C(=O)CCl` (centres unmarked) [Compound 10], in assay [1], the activity at 1 µg/mL was 20%.
